From patent US10551393B1, “High-throughput, in vivo screening platform for modulators of Apolipoprotein B” (THE JOHNS HOPKINS UNIVERSITY, priority 2016, dated 2020)
Entries after “also recorded” stand apart in the source; their conditions may differ.

How the values were obtained:
[1] = tested on: ApoB-NanoLuc® luciferase reporter; assay: ApoB-NanoLuc luciferase reporter assay in transgenic zebrafish larvae (primary screen); type: in vivo
Experimental: Of the two existing inhibitors of ApoB, lomitapide is the most appropriate for use as a proof of principle because it is a small molecule. Conversely, mipomersen is an injectable antisense biologic that is not suitable for comparison to small-molecule inhibitors and cannot be used a high-throughput manner. Larval zebrafish were treated with serial dilutions of the lomitapide for 36 hours from 2.5 to 4 dpf.
There are detailed protocols for the development and execution of a high-throughput screen using live vertebrate zebrafish (26, 27). The high-throughput screen uses transgenic zebrafish that carry both an engineered luciferase reporter (NanoLuc® luciferase) fused to ApoB which serves as the primary readout, and a second ubiquitously expressed firefly luciferase reporter that is used as an internal control. Transgenic larvae are raised to 3 days post-fertilization (dpf) and automatically sorted and dispensed into 96-well plates containing various dilutions of test compound. Following 48-hour incubation with test and control compounds, the zebrafish are homogenized and assayed sequentially for Firefly and NanoLuc® luciferase signal using the automated robotics platform and plate reader. Hit-calling software is used to select putative hits, which are validated through repetition and orthogonal screening. The first iteration of the screen uses a modest-sized library (3,000 compounds), and empirical determination of the optimal sample size and number of titration points required for screening enables an increase in throughput for the following iteration of the screen, which screens a 30,000 compound library.
Statistical resampling of positive control treatments can be used to estimate the appropriate sample size for HTS assays given type I and type II error rate thresholds and a desired cutoff for effect size (27). Assuming a type II error rate of 0.01 and setting the hit selection cutoff to 50% the magnitude of positive control treatment generates a log-linear relationship between sample size and type I error rate. […] Besides serving as a metric for assay quality, the SSMD score can also be used to determine hit cutoff criteria. This statistical test compares the averages between the negative control and each experimental sample, and then adjusts this difference based on the median absolute deviation (MAD) of each sample, such that samples with high variability are penalized and produce a poor SSMD score even if there is a large difference between the means. In positive control treatments, lomitapide produced an SSMD score of −4.5, reflecting a very strong control assay. The scaling factor formula can be used to determine the SSMD cutoff based on the desired magnitude relative to the positive control. A compound with a 50% effect size relative to MTP was chosen as a physiologically relevant effect size, which would produce an SSMD score of −2.7.
Day 1: Embryo production and collection—zebrafish homozygous for the ApoB-NanoLuc® luciferase and ubi:Fluc reporters are induced to spawn using custom mass-breeding chambers. Eggs are collected hourly from 9 AM to 2 PM. Embryos are maintained in petri dishes at a density of 5 fish/mL of embryo medium (E3). Day 2: Raising embryos—Embryos are maintained in E3 (1 dpf). Day 3: Raising embryos and preparing drug plates—Embryos are maintained in embryo medium (2 dpf). […]

[2] = tested on: firefly luciferase internal control reporter; assay: Firefly luciferase internal control (counter-screen) of the dual luciferase assay; type: in vivo; details: preliminary screen; cutoff SSMD ±2.4
Excerpt: The primary screen seeks to identify compounds that lower ApoB levels, which is likely to identify numerous false positives that are cytotoxic or inhibit fundamental cellular processes such as transcription or translation. The inclusion of a counter-screen helps identify compounds that have strong effects on the target phenotype without causing major disruptions in other cellular processes. The pd75 zebrafish line carries a ubiquitous promoter driving firefly luciferase as well as the mCherry fluorescent reporter, which can be used to detect developmental delay or cytotoxicity in any organ. […]
The Nano-Glo® dual luciferase assay provides the means to independently measure firefly and NanoLuc® luciferase in a single reaction enabling parallel measurement of the primary screen reaction and counter-screen reaction in a high-throughput compatible add-and-read format. Consistent measurement of luciferase activity requires homogenous sample inputs, so we have developed homogenization methods using a microplate sonicator that exceeds the throughput capacity of the plate reader.
The NanoLuc® luciferase reporter uses a different substrate than firefly luciferase, allowing a second luciferase reporter to be measured in parallel as an internal control. […]

[3] = tested on: ApoB-containing lipoprotein particles; assay: In-gel luciferase assay for lipoprotein size distribution; type: in vivo, zebrafish; details: for lipoprotein particle size distribution: larval zebrafish homogenate, polyacrylamide gel, in-gel luciferase
Experimental: To evaluate whether introduction of the luciferase tag disrupted protein function, individual larvae carrying the reporter construct were homogenized and lipoprotein classes were separated on a 3% PAGE gel (see Singh et al. Lipids in Health and Disease 7:47, 2008). An in-gel luciferase assay was then performed to detect the NanoLuc® luciferase reporter present in the gel (FIG. 2A), and compared to the results obtained from adult zebrafish serum that was stained using lipophilic fluorescent dye (FIG. 2B). Encouragingly, essentially all of the signal was present in the expected VLDL, IDL, and LDL portions of the gel, which is consistent with the primary role of ApoB as an obligate structural component of lipid-rich lipoproteins. Additionally, this method has sufficient sensitivity and resolution to detect LDL subclasses, which are seen as deviations from the normal distribution in the plot profile. […] Additionally, signal from the ApoB-luciferase fusion is responsive to known chemical and physiological modulators of ApoB (MTP inhibition and fasting).
The in-gel luciferase assay developed in our lab provides the opportunity to rapidly and sensitively detect changes in lipoprotein size distribution using individual larval zebrafish. Following a week of high-fat diet with or without treatment of test compound, larval zebrafish are homogenized and lipoproteins are separated on a 3% native PAGE gel and imaged using the in-gel luciferase reporter. This enables rapid assessment of lead compounds on effects of the potentially clinically important lipoprotein size distribution phenotype. […]
In addition to its utility as a high-throughput compatible readout for measuring levels of Apolipoprotein B, the described ApoB-NanoLuc® luciferase reporter can also be used to measure the size distribution and localization of ApoB-containing particles in zebrafish larvae. Lipoproteins separated using polyacrylamide gel electrophoresis can be sensitively detected in individual larval homogenates by immersing the gel in the NanoLuc® luciferase substrate. […]

[4] = tested on: ApoB; details: cited from earlier work

## O=C(NC1CCN(CCCCC2(C(=O)NCC(F)(F)F)c3ccccc3-c3ccccc32)CC1)c1ccccc1-c1ccc(C(F)(F)F)cc1 [lomitapide]
[1]; larval zebrafish, serial dilutions, 36 hours from 2.5 to 4 dpf
  reporter activity relative to vehicle-treated controls: dose-dependent reduction
[1]; positive control treatments, hit cutoff −2.7
  SSMD score (ApoB-NanoLuc): −4.5
[1]; preliminary screen, dose-response, hit selection cutoff −2.7
  NanoLuc luciferase levels: dose-dependent decrease
[1]; preliminary validation screen of lipid/lipoprotein metabolism compounds
  change in ApoB (ApoB-NanoLuc): significant change in ApoB
[1]; transgenic larvae
  ApoB-NanoLuc luciferase levels in transgenic larvae: significantly lowered
[2]
  effect on internal control reporter (firefly luciferase): without affecting the internal control reporter
[3]; acute treatment, larval zebrafish, 3% native PAGE
  ApoB levels: significant reduction
[3]
  lipoprotein particle size distribution: unable to create large lipoprotein particles; also recorded: particle size and number are greatly reduced; also recorded: did not have large lipoprotein particles
[3]; listed as Lomitapide
  lipoprotein particle size distribution: induced the formation of very small lipoprotein particles
[4]
  ApoB levels in humans: significant reduction
